Calls of active or inactive are those of the source. No cut-off for these calls is given here.
What was measured:
U-251 [1] = experiment: Cytotoxicity against human U-251 cells assessed as reduction in cell viability incubated for 72 hrs by MTT assay; assay type: functional, cell-based; conditions: U-251, 72 h
K562 = experiment: Cytotoxicity against human K562 cells assessed as reduction in cell viability incubated for 72 hrs by MTT assay; assay type: functional, cell-based; conditions: K562, 72 h
MDA-MB-231 = experiment: Cytotoxicity against human MDA-MB-231 cells assessed as reduction in cell viability incubated for 72 hrs by MTT assay; assay type: functional, cell-based; conditions: MDA-MB-231, 72 h
A549 = experiment: Cytotoxicity against human A549 cells assessed as reduction in cell viability incubated for 72 hrs by MTT assay; assay type: functional, cell-based; conditions: A549, 72 h
[2] = Cytotoxicity against human […] cells assessed as reduction in cell viability incubated for 72 hrs by MTT assay; assay type: functional, cell-based
U-251 [3] = experiment: Induction of mitochondrial stress in human U-251 cells assessed as decrease in ATP production after 24 hrs by microplate reader analysis; assay type: functional, cell-based
[4] = Cytotoxicity against human SHG-44 cells assessed as reduction in cell viability incubated for 72 hrs by MTT assay; assay type: functional, cell-based; conditions: SHG-44, 72 h
U-251 [5] = experiment: Inhibition of TrxR in human U-251 cells at 10 uM measured after 12 hrs by colorimetry; assay type: cell-based
[6] = Inhibition of rat liver TrxR using DTNB and NADPH as substrate preincubated for 10 mins followed by substrate addition; assay type: tissue-based
HepG2 = experiment: Cytotoxicity against human HepG2 cells assessed as reduction in cell viability incubated for 72 hrs by MTT assay; assay type: functional, cell-based; conditions: HepG2, 72 h
U-251 [7] = experiment: Inhibition of mitochondrial respiration in human U-251 cells assessed as reduction in oxygen consumption rate at 10 uM pretreated for 24 hrs with sequential addition of oligomycin, FCCP and antimycin-A by seahorse XFe96 analyser based assay; assay type: functional, cell-based
U-87 MG = experiment: Cytotoxicity against human U87 cells assessed as reduction in cell viability incubated for 72 hrs by MTT assay; assay type: functional, cell-based, U-87MG ATCC
[8] = Cytotoxicity against human U87/TMZ cells assessed as reduction in cell viability incubated for 72 hrs by MTT assay; assay type: functional, cell-based
C6 = experiment: Cytotoxicity against rat C6 cells assessed as reduction in cell viability incubated for 72 hrs by MTT assay; assay type: functional, cell-based; conditions: C6, 72 h
HUVEC = experiment: Cytotoxicity against HUVEC cells assessed as reduction in cell viability incubated for 72 hrs by MTT assay; assay type: cell-based; conditions: Homo sapiens

Structure (SMILES) | IC50 (U-251 [1]) [µM] | IC50 (K562) [µM] | IC50 (MDA-MB-231) [µM] | IC50 (A549) [µM] | IC50 [2] [µM] | Activity (U-251 [3]) | IC50 [4] [µM] | inhibition (U-251 [5]) | IC50 [6] [µM] | IC50 (HepG2) [µM] | Activity (U-251 [7]) | IC50 (U-87 MG) [µM] | IC50 [8] [µM] | IC50 (C6) [µM] | IC50 (HUVEC) [µM]
COc1cc(/C=C/C(=O)CC(=O)/C=C/c2ccc(O)c(OC)c2)ccc1O [CURCUMIN] | 25.8 | 46.8 | 31.4 | 24.2 | – | – | – | – | – | – | – | – | – | – | –
COc1cc(/C=C/C(=O)/C=C(O)/C=C/c2ccc(O)cc2)ccc1O | 2.72 | 3.86 | 9.36 | 5.64 | 17.3 | inactive | 4.98 | Active | 0.77 | 10.7 | inactive | 5.45 | 21.5 | 7.16 | 32.6
OCCCCCCCCCC[P+](c1ccccc1)(c1ccccc1)c1ccccc1 | > 100 | > 100 | > 100 | > 100 | – | – | – | – | > 100 | > 100 | – | – | – | – | –

Source: ChEMBL document CHEMBL4837221 (Eur J Med Chem, 2021)
